# Reference: US9567342B2, “Certain protein kinase inhibitors” (SHANGHAI FOCHON PHARMACEUTICAL CO., LTD., priority 2012, dated 2017)
# Test system: SU-DHL-1 cells
# Assay: Inhibition activity of cell proliferation (CCK-8 assay)
# Type: cell-based
# Conditions: Homo sapiens, 72 h exposure
# Description: SU-DHL-1 cells were seeded in 96-well tissue culture plates. On the next day, cells were exposed to various concentrations of compounds and further cultured for 72 h. Cell proliferation was then determined using Cell Counting Kit-8 [(CCK-8), Dojindo]assay. Briefly, add 10 μL of the CCK-8 solution to each well of the plate. Incubate the plate for 1-4 hours in the incubator. Measure the absorbance at 450 nm using a multi-well spectrophotometer (SpectraMAX 190, Molecular Devices). The inhibition rate (%) was calculated using the following equation: [1−(A450 Compound/A450 Control)]×100%. IC50 values were calculated according to inhibition curve by four-parameter fit.
row,IC50 [µM],Compound
1,0.0262,"Cc1cc(Nc2ncc(Cl)c(Nc3ccccc3S(=O)(=O)C(C)C)n2)c2c(c1C1CCN(C[C@H](C)O)CC1)C[C@H](C)O2 [Example 36, (S)-1-(4-((S)-7-((5-chloro-4-((2-(isopropylsulfonyl)phenyl)amino)pyrimidin-2-yl)amino)-2,5-dimethyl-2,3-dihydrobenzofuran-4-yl)piperidin-1-yl)propan-2-ol]"
2,0.0189,"Cc1cc(Nc2nc(Nc3ccccc3S(=O)(=O)C(C)C)c3c(C)n[nH]c3n2)c2c(c1C1CCN(C)CC1)CCO2 [Example 2, N-4-(2-(isopropylsulfonyl)phenyl)-3-methyl-N-6-(5-methyl-4-(1-methylpiperidin-4-yl)-2,3-dihydrobenzofuran-7-yl)-1H-pyrazolo[3,4-d]pyrimidine-4,6-diamine]"
3,0.0136,"Cc1cc(Nc2ncc(Cl)c(Nc3ccccc3S(=O)(=O)C(C)C)n2)c2c(c1C1CCN(C(=O)[C@H](C)O)CC1)C[C@@H](C)O2 [Example 38, (S)-1-(4-((R)-7-((5-chloro-4-((2-(isopropylsulfonyl)phenyl)amino)pyrimidin-2-yl)amino)-2,5-dimethyl-2,3-dihydrobenzofuran-4-yl)piperidin-1-yl)-2-hydroxypropan-1-one]"
4,0.0647,Cc1cc(Nc2ncc(Cl)c(Nc3ccccc3S(=O)(=O)C(C)C)n2)c2c(c1C1CCN(CCS(C)(=O)=O)CC1)C[C@H](C)O2 [Example 29]
5,0.0382,"CC(=O)N1CCC(c2c(C)cc(Nc3ncc(Cl)c(Nc4ccccc4S(=O)(=O)C(C)C)n3)c3c2C[C@H](C)O3)CC1 [Example 15, (S)-1-(4-(7-((5-chloro-4-((2-(isopropylsulfonyl)phenyl)amino)pyrimidin-2-yl)amino)-2,5-dimethyl-2,3-dihydrobenzofuran-4-yl)piperidin-1-yl)ethanone]"
6,0.061,"Cc1cc(Nc2nc(Nc3ccccc3S(=O)(=O)C(C)C)c3c(C)n[nH]c3n2)c2c(c1C1CCNCC1)C[C@@H](C)O2 [Example 3, (R)—N-6-(2,5-dimethyl-4-(piperidin-4-yl)-2,3-dihydrobenzofuran-7-yl)-N-4-(2-(isopropylsulfonyl)-phenyl)-3-methyl-1H-pyrazolo[3,4-d]pyrimidine-4,6-diamine]"
7,0.0118,"Cc1cc(Nc2ncc(Cl)c(Nc3ccccc3S(=O)(=O)C(C)C)n2)c2c(c1C1CCN(CCO)CC1)C[C@@H](C)O2 [Example 33, (R)-2-(4-(7-((5-chloro-4-((2-(isopropylsulfonyl)phenyl)amino)pyrimidin-2-yl)amino)-2,5-dimethyl-2,3-dihydrobenzofuran-4-yl)piperidin-1-yl)ethanol]"
8,0.0812,"Cc1cc(Nc2ncc(Cl)c(Nc3ccccc3S(=O)(=O)C(C)C)n2)c2c(c1C1CCN(C(=O)C(C)C)CC1)C[C@@H](C)O2 [Example 50, (R)-1-(4-(7-((5-chloro-4-((2-(isopropylsulfonyl)phenyl)amino)pyrimidin-2-yl)amino)-2,5-dimethyl-2,3-dihydrobenzofuran-4-yl)piperidin-1-yl)-2-methylpropan-1-one]"
9,0.114,"Cc1cc(Nc2ncc(Cl)c(Nc3ccccc3S(=O)(=O)C(C)C)n2)c2c(c1C(=O)N1CCNCC1)C[C@H](C)O2 [Example 46, (S)-(7-((5-chloro-4-((2-(isopropylsulfonyl)phenyl)amino)pyrimidin-2-yl)amino)-2,5-dimethyl-2,3-dihydrobenzofuran-4-yl)(piperazin-1-yl)methanone]"
10,0.0527,"COCC1Cc2c(c(Nc3nc(Nc4ccccc4S(=O)(=O)C(C)C)c4c(C)n[nH]c4n3)cc(C)c2C2CCNCC2)O1 (centres unmarked) [Example 8, N-4-(2-(isopropylsulfonyl)phenyl)-N-6-(2-(methoxymethyl)-5-methyl-4-(piperidin-4-yl)-2,3-dihydrobenzofuran-7-yl)-3-methyl-1H-pyrazolo[3,4-d]pyrimidine-4,6-diamine]"
11,0.11,Cc1cc(Nc2ncc(Cl)c(Nc3ccccc3S(=O)(=O)C(C)C)n2)c2c(c1C1CCN(S(=O)(=O)C(C)C)CC1)C[C@@H](C)O2 [Example 53]
12,0.12,"COC(=O)N1CCC(c2c(C)cc(Nc3ncc(Cl)c(Nc4ccccc4S(=O)(=O)C(C)C)n3)c3c2C[C@H](C)O3)CC1 [Example 40, (S)-methyl 4-(7-((5-chloro-4-((2-(isopropylsulfonyl)phenyl)amino)pyrimidin-2-yl)amino)-2,5-dimethyl-2,3-dihydrobenzofuran-4-yl)piperidine-1-carboxylate]"
13,0.0395,"Cc1cc(Nc2ncc(Cl)c(Nc3ccccc3S(=O)(=O)C(C)C)n2)c2c(c1C1CCN(C(=O)CN(C)C)CC1)C[C@H](C)O2 [Example 45, (S)-1-(4-(7-((5-chloro-4-((2-(isopropylsulfonyl)phenyl)amino)pyrimidin-2-yl)amino)-2,5-dimethyl-2,3-dihydrobenzofuran-4-yl)piperidin-1-yl)-2-(dimethylamino)ethanone]"
14,0.333,"Cc1cc(Nc2ncc(Cl)c(Nc3ccccc3S(=O)(=O)C(C)C)n2)c2c(c1C1CCN(S(=O)(=O)C3CC3)CC1)C[C@@H](C)O2 [Example 54, (R)-5-chloro-N-2-(4-(1-(cyclopropylsulfonyl)piperidin-4-yl)-2,5-dimethyl-2,3-dihdyrobenzofuran-7-yl)-N-4-(2-(isopropylsulfonyl)phenyl)pyrimidine-2,4-diamine]"
15,0.0524,"Cc1cc(Nc2ncc(Cl)c(Nc3ccccc3S(=O)(=O)C(C)C)n2)c2c(c1C1CCN(C(=O)C3CC3)CC1)C[C@@H](C)O2 [Example 51, (R)-(4-(7-((5-chloro-4-((2-(isopropylsulfonyl)phenyl)amino)pyrimidin-2-yl)amino)-2,5-dimethyl-2,3-dihydrobenzofuran-4-yl)piperidin-1-yl)(cyclopropyl)methanone]"
16,0.0685,"Cc1cc(Nc2ncc(Cl)c(Nc3ccccc3S(=O)(=O)C(C)C)n2)c2c(c1C1CCN(S(C)(=O)=O)CC1)C[C@H](C)O2 [Example 17, (S)-5-chloro-N-2-(2,5-dimethyl-4-(1-(methylsulfonyl)piperidin-4-yl)-2,3-dihydrobenzofuran-7-yl)-N-4-(2-(isopropylsulfonyl)phenyl)pyrimidine-2,4-diamine]"
17,0.0066,Cc1cc(Nc2ncc(Cl)c(Nc3ccccc3S(=O)(=O)C(C)C)n2)c2c(c1C1CCN(C)CC1)CCO2 [Example 14]
18,0.0116,"CC(=O)N1CCC(c2c(C)cc(Nc3ncc(Cl)c(Nc4ccccc4S(=O)(=O)C(C)C)n3)c3c2C[C@@H](C)O3)CC1 [Example 16, (R)-1-(4-(7-((5-chloro-4-((2-(isopropylsulfonyl)phenyl)amino)pyrimidin-2-yl)amino)-2,5-dimethyl-2,3-dihydrobenzofuran-4-yl)piperidin-1-yl)ethanone]"
19,0.298,"Cc1cc(Nc2nc(Nc3ccccc3S(=O)(=O)C(C)C)c3c(C)n[nH]c3n2)c2c(c1C1CCNCC1)CC(CO)O2 (centres unmarked) [Example 7, (7-(4-(2-(isopropylsulfonyl)phenylamino)-3-methyl-1H-pyrazolo[3,4-d]pyrimidin-6-ylamino)-5-methyl-4-(piperidin-4-yl)-2,3-dihydrobenzofuran-2-yl)methanol]"
20,0.059,"CCS(=O)(=O)N1CCC(c2c(C)cc(Nc3ncc(Cl)c(Nc4ccccc4S(=O)(=O)C(C)C)n3)c3c2C[C@@H](C)O3)CC1 [Example 52, (R)-5-chloro-N-2-(4-(1-(ethylsulfonyl)piperidin-4-yl)-2,5-dimethyl-2,3-dihydrobenzofuran-7-yl)-N-4-(2-(isopropylsulfonyl)phenyl)pyrimidine-2,4-diamine]"
